The text below walks through data of paper PMC4794757 (Bioorganic & medicinal chemistry letters, 2016).

Structures are written as SMILES. A value given as a limit tells only on which side of the number the result lay.

The target of one data set is hmGlu4 (Homo sapiens, UniProt Q14833). As to the kind of experiment: mGlu4 counter-screen. It counts as cell-based. Conditions: selectivity mGlu1 versus mGlu4.
Sequence of hmGlu4 (Q14833 33-912): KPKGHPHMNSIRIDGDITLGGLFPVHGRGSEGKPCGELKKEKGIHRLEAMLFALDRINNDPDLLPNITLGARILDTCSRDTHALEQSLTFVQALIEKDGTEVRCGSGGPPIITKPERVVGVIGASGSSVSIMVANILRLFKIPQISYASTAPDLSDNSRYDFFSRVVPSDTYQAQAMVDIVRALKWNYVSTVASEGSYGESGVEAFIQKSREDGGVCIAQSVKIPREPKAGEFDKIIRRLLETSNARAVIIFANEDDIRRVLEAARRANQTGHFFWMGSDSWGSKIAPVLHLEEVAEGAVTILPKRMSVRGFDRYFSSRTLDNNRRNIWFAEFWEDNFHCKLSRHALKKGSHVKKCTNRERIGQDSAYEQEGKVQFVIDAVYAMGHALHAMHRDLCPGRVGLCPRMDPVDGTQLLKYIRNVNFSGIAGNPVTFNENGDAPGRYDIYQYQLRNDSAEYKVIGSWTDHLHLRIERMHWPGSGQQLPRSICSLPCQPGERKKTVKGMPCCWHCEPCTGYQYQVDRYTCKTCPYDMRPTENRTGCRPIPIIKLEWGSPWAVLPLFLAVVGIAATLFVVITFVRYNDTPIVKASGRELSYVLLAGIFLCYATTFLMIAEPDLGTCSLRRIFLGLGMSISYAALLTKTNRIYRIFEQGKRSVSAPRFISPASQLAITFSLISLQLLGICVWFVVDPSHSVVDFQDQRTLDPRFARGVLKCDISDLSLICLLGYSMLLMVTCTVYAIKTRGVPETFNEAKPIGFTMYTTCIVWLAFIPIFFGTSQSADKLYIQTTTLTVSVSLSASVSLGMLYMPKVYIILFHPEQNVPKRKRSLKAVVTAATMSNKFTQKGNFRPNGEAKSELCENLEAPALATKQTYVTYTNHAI
`Cc1cn[nH]c1C(=O)Nc1ccc(N2C(=O)c3cccc(F)c3C2=O)c(Cl)c1` [11aa]: the “Fold versus mGlu4” value is greater than 16 fold.
For the molecule `Cc1scnc1C(=O)Nc1ccc(N2C(=O)c3cccc(Cl)c3C2=O)c(Cl)c1` [11k], the “Fold versus mGlu4” value is on record as greater than 7.3 fold.
For the molecule `Cc1scnc1C(=O)Nc1ccc(N2C(=O)c3cccnc3C2=O)c(Cl)c1` [11n], the “Fold versus mGlu4” value is on record as greater than 52 fold.
As to `Cc1cn[nH]c1C(=O)Nc1ccc(N2C(=O)c3cccc(C)c3C2=O)c(Cl)c1` [11w], the “Fold versus mGlu4” value is given as greater than 2 fold.

A further data set deals with hmGlu1 (Homo sapiens, UniProt Q13255). In words: Calcium mobilization mGlu1 assay.
Sequence of hmGlu1 (Q13255 19-1194): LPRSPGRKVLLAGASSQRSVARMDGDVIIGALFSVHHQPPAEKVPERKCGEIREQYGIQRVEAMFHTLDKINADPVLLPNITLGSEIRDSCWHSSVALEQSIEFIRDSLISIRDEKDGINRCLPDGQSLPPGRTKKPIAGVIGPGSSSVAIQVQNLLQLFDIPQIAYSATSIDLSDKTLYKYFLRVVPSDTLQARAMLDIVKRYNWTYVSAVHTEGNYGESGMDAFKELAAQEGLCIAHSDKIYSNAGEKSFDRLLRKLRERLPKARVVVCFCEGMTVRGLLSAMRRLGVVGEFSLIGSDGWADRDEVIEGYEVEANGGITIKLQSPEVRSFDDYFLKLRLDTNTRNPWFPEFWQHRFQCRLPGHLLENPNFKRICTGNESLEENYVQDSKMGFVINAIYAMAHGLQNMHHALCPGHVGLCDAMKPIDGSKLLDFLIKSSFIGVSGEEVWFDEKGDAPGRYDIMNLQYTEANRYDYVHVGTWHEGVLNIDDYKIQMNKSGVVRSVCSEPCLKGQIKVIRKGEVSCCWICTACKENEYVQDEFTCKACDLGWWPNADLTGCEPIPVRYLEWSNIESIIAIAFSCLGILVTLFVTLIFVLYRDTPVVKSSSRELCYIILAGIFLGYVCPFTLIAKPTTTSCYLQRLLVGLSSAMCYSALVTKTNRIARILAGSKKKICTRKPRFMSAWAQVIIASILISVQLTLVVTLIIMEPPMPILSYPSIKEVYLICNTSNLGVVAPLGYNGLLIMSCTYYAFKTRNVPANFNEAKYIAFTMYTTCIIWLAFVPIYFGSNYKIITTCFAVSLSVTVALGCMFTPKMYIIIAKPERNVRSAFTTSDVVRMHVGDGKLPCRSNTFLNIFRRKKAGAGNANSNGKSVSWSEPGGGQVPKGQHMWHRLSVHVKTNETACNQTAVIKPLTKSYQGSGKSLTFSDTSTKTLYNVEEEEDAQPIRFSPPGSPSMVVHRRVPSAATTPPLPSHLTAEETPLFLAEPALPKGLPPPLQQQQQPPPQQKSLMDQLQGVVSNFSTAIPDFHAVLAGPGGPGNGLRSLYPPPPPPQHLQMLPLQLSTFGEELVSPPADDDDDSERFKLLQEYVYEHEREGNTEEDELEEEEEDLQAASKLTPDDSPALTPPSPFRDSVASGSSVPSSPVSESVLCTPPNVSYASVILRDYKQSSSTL
Details: not given
It is filed as cell-based.
`Cc1ccsc1C(=O)Nc1ccc(N2C(=O)c3ccccc3C2=O)c(Cl)c1` [10d]: the EC50 lay within 1500 to 1800 nM.

Still in this data set, the particulars now being: calcium mobilization, average of n=3 in triplicate.
For `CN1CCC[C@@H]1C(=O)Nc1ccc(N2C(=O)c3ccccc3C2=O)c(Cl)c1` [10l], the “hmGlu1 EC50” value is “inactive”.
On to `CN1CCC[C@H]1C(=O)Nc1ccc(N2C(=O)c3ccccc3C2=O)c(Cl)c1` [10m], for which the “hmGlu1 EC50” value was “inactive”.

Still in this data set, the particulars now being: calcium mobilization, n=3.
On to `Cc1[nH]ccc1C(=O)Nc1ccc(N2C(=O)c3ccccc3C2=O)c(Cl)c1` [10b], for which the “mGlu1 pEC50 (±SEM)” value is greater than 5.
`Cc1ccsc1C(=O)Nc1ccc(N2C(=O)c3ccccc3C2=O)c(Cl)c1` [10d]: the “mGlu1 pEC50 (±SEM)” value is on record as 5.72±0.27.
Turning to `Cc1ncoc1C(=O)Nc1ccc(N2C(=O)c3ccccc3C2=O)c(Cl)c1` [10f], the “mGlu1 pEC50 (±SEM)” value was greater than 5.
For the molecule `Cc1ocnc1C(=O)Nc1ccc(N2C(=O)c3ccccc3C2=O)c(Cl)c1` [10g], the “mGlu1 pEC50 (±SEM)” value was found to be 5.83±0.02.
The same measure, in the same setting: the result for `Cc1ncsc1C(=O)Nc1ccc(N2C(=O)c3ccccc3C2=O)c(Cl)c1` [10h] reads greater than 5; that for `Cc1cn[nH]c1C(=O)Nc1ccc(N2C(=O)c3ccccc3C2=O)c(Cl)c1` [10k], 5.91±0.21; that for `CN1CCC[C@@H]1C(=O)Nc1ccc(N2C(=O)c3ccccc3C2=O)c(Cl)c1` [10l], greater than 5.
For the molecule `CN1CCC[C@H]1C(=O)Nc1ccc(N2C(=O)c3ccccc3C2=O)c(Cl)c1` [10m], the “mGlu1 pEC50 (±SEM)” value is listed as greater than 5.
For `Cc1ccc2c(c1)C(=O)N(c1ccc(NC(=O)c3ncoc3C)cc1Cl)C2=O` [11a], the “mGlu1 pEC50 (±SEM)” value was 7.38±0.11.
On the same count and under the same terms, as for `Cc1ocnc1C(=O)Nc1ccc(N2C(=O)c3ccc(Cl)cc3C2=O)c(Cl)c1` [11c], the figure is 7.26±0.13; as for `Cc1cccc2c1C(=O)N(c1ccc(NC(=O)c3ncsc3C)cc1Cl)C2=O` [11i], 6.64±0.14; as for `Cc1scnc1C(=O)Nc1ccc(N2C(=O)c3ccc(Cl)cc3C2=O)c(Cl)c1` [11j], 7.30±0.15.
As for `Cc1scnc1C(=O)Nc1ccc(N2C(=O)c3cccc(Cl)c3C2=O)c(Cl)c1` [11k], the “mGlu1 pEC50 (±SEM)” value was determined as 5.86±0.28.
For the molecule `Cc1ccc2c(c1)C(=O)N(c1ccc(NC(=O)c3nccn3C)cc1Cl)C2=O` [11o], the “mGlu1 pEC50 (±SEM)” value is recorded as 6.60±0.20.
As to `Cc1cccc2c1C(=O)N(c1ccc(NC(=O)c3nccn3C)cc1Cl)C2=O` [11p], the “mGlu1 pEC50 (±SEM)” value was greater than 5.
On to `Cn1ccnc1C(=O)Nc1ccc(N2C(=O)c3ccc(Cl)cc3C2=O)c(Cl)c1` [11q], for which the “mGlu1 pEC50 (±SEM)” value came to 6.58±0.13.
The same measure, in the same setting: as for `Cn1ccnc1C(=O)Nc1ccc(N2C(=O)c3cccc(Cl)c3C2=O)c(Cl)c1` [11r], the figure is greater than 5; as for `Cn1ccnc1C(=O)Nc1ccc(N2C(=O)c3cccc(F)c3C2=O)c(Cl)c1` [11t], greater than 5.
As for `Cn1ccnc1C(=O)Nc1ccc(N2C(=O)c3cccnc3C2=O)c(Cl)c1` [11u], the “mGlu1 pEC50 (±SEM)” value is on record as greater than 5.
In the case of `Cc1ccc2c(c1)C(=O)N(c1ccc(NC(=O)c3[nH]ncc3C)cc1Cl)C2=O` [11v], the “mGlu1 pEC50 (±SEM)” value stood at 6.25±0.16.
For `Cc1cn[nH]c1C(=O)Nc1ccc(N2C(=O)c3cccc(C)c3C2=O)c(Cl)c1` [11w], the “mGlu1 pEC50 (±SEM)” value was 5.36±0.22.
On the same count and under the same terms, as for `Cc1cn[nH]c1C(=O)Nc1ccc(N2C(=O)c3cccc(Cl)c3C2=O)c(Cl)c1` [11y], the figure is greater than 5; as for `Cc1ccoc1C(=O)Nc1ccc(N2C(=O)c3ccc(Cl)cc3C2=O)cc1F` [13c], 8.27±0.02; as for `Cc1ccoc1C(=O)Nc1ccc(N2C(=O)c3ccc(F)cc3C2=O)cc1F` [13d], 7.71±0.06.
Same read-out and setting: as for `Cc1ccoc1C(=O)Nc1ccc(N2C(=O)c3cccc(F)c3C2=O)cc1F` [13e], the figure is 7.65±0.07.

The same data set, now with this note: effect of a single methyl group.
For `Cc1scnc1C(=O)Nc1ccc(N2C(=O)c3ccccc3C2=O)c(Cl)c1` [10i], the “potency increase relative to the unsubstituted thiazole” value is roughly 200 fold.

Tested on in a further data set: not listed separately
In words: Rat iv PK. It is filed as in vivo. Conditions: rat iv clearance versus rat microsomal prediction.
Regarding `Cc1ccc2c(c1)C(=O)N(c1ccc(NC(=O)c3occc3C)c(F)c1)C2=O` [13a], the “in vivo clearance lower than the in vitro predicted value” is 8 times.
Same read-out and setting: the result for `Cc1ccoc1C(=O)Nc1ccc(N2C(=O)c3cccc(C)c3C2=O)cc1F` [13b] reads 4 times.
